Laboratory results reported in ChEMBL document CHEMBL3045908, “Phenolic and iridoid glycosides from the rhizomes of Cyperus rotundus L” (Med Chem Res, 2013).

System: RAW264.7
Assay: Anti-inflammatory activity in Mus musculus (mouse) RAW264.7 cells assessed as inhibition of PMA-induced macrophages respiratory burst measured up to 30 min by chemiluminescence method
Format: functional, cell-based
Conditions: RAW264.7, 0.5 h

Row | IC50 [µM] | SMILES
1 | 320 | COc1cc(/C=C/C(=O)O[C@H]2[C@H](O[C@@H]3O[C@H](CO)[C@@H](O)[C@H](O)[C@H]3O)[C@@H](O[C@@H]3OC[C@H](O)[C@H](O)[C@H]3O)[C@H](OCCc3ccc(O)c(O)c3)O[C@@H]2CO[C@@H]2OC[C@H](O)[C@@H](O)[C@@H]2O)ccc1O [HELIOSIDE C]
2 | 336 | COc1cc(/C=C/C(=O)O[C@H]2[C@H](O[C@@H]3O[C@H](CO)[C@@H](O)[C@H](O)[C@H]3O)[C@@H](O[C@@H]3OC[C@H](O)[C@H](O)[C@H]3O)[C@H](OCCc3ccc(O)c(O)c3)O[C@@H]2CO)ccc1O [CHIONOSIDE A]
3 | 355 | C[C@@H]1C[C@H]2[C@@H]3CCC4=CC(=O)C=C[C@]4(C)[C@@]3(F)[C@@H](O)C[C@]2(C)[C@@]1(O)C(=O)CO [DEXAMETHASONE]
4 | 31.1 | COC(=O)C1=CO[C@@H](O[C@@H]2O[C@H](CO[C@@H]3O[C@H](COC(=O)/C=C/c4cc(O)c(O)c(O)c4)[C@@H](O)[C@H](O)[C@H]3O)[C@@H](O)[C@H](O)[C@H]2O)[C@@H]2C(CO)=CC[C@H]12 [ROTUNDUSIDE B]
5 | 78.7 | COC(=O)C1=CO[C@@H](O[C@@H]2O[C@H](CO[C@@H]3O[C@H](COC(=O)/C=C/c4ccc(O)cc4)[C@@H](O)[C@H](O)[C@H]3O)[C@@H](O)[C@H](O)[C@H]2O)[C@@H]2C(CO)=CC[C@H]12 [6'-O-P-COUMAROYLGENIPIN GENTIOBIOSIDE]
6 | 15.1 | C[C@@H]1O[C@@H](OC[C@H]2O[C@@H](Oc3c(-c4ccc(O)c(O)c4)oc4cc(O)cc(O)c4c3=O)[C@H](O)[C@@H](O)[C@@H]2O)[C@H](O)[C@H](O)[C@H]1O [RUTIN]
7 | 308 | O=C(/C=C/c1ccc(O)cc1)OC[C@H]1O[C@@H](OCCc2ccc(O)c(O)c2)[C@H](O[C@@H]2OC[C@H](O)[C@H](O)[C@H]2O)[C@@H](O[C@@H]2O[C@H](CO)[C@@H](O)[C@H](O)[C@H]2O)[C@@H]1O [ISOARAGOSIDE]
8 | 217 | COC(=O)C1=CO[C@@H](O[C@@H]2O[C@H](CO)[C@@H](O)[C@H](O)[C@H]2O)[C@@H]2C(CO)=C[C@@H](OC[C@H]3O[C@@H](O[C@@H]4OC=C(C(=O)OC)[C@H]5C=C[C@](O)(CO)[C@@H]45)[C@H](O)[C@@H](O)[C@@H]3O)[C@H]12 [ROTUNDUSIDE A]
